Source: patent US10543171B2, “Dermal drug delivery using amphiphilic dendron-coil micelles” (THE BOARD OF TRUSTEES OF THE UNIVERSITY OF ILLINOIS, priority 2013, dated 2020)
Entries after “also recorded” stand apart in the source; their conditions may differ. One block for each compound: values may come before it.

Experiments:
[1] = 25° C.; cited from earlier work
[2] = tested on: MDA-MB-231 cells; assay: in vitro anti-proliferation assay (MTS) against MDA-MB-231; format: cell-based; details: ER-negative; comparable drug concentrations; listed as free EDX
[3] = biological target: folate receptors (FR); details: read-out: affinity for FR (KD); cited from earlier work
[4] = skin deposition of Cou6 from two-dye dendron micelles (CLSM, spectrofluorometer); format: in vitro ADME, mouse
Experimental: To prepare two-dye dendron micelles, two milligrams of acetylated, RHO-labeled PDC (PDC-RHO-Ac) was combined with 10 mg of unlabeled surface modified PDC in 1.2 mL DMF, and 2% (wt %) of Cou6 was added to the mixture. The materials were fully dissolved and mixed by brief vortexing followed by gentle shaking for 2 h. The Cou6-encapsulated, RHO-labeled dendron micelles were prepared by the dialysis method, and the solid material was obtained by lyophilization as described above.
SKH-1 hairless mouse skin was exposed to the Cou6-loaded micelles with different surfaces for 24 h in the Franz cell setup. The skin area that was exposed to the treatment was carefully collected, rinsed twice with ddH2O for 10 min and embedded into cryomolds (Tissue-Tek®, Sakura Finetek USA, Inc., Torrance, Calif.). Skin was cryosectioned into 80 um-thick slices and placed on anti-frost glass slides. The slides were then fixed by 10% neutral buffered formalin for 10 min at RT and rinsed with ddH2O. The skin slides were mounted with antiphotobleaching mounting media with DAPI (Vector Laboratory Inc., Burlingame, Calif.) and covered with glass cover slips. […]
After the two-dye micelle experiment, the fluorescence intensity in the donor and receiver solutions, as well as skin extracts were detected using a SoftMax Pro spectrofluorometer (Spectra MAX, Molecular Devices Inc., Sunnyvale, Calif.). […]

Structure (SMILES): CC/C(=C(\c1ccc(O)cc1)c1ccc(OCCNC)cc1)c1ccccc1 [EDX, 4-hydroxy-N-desmethyl tamoxifen]
partition coefficient (log P) [1]: 6.01
anti-proliferative effect / cytotoxicity against MDA-MB-231 cells [2]: neither free EDX nor EDX-loaded micelles had significant cytotoxicity; also recorded: Neither free EDX nor EDX-loaded DMs exhibited significant anti-proliferative effect

Structure (SMILES): Nc1nc2ncc(CNc3ccc(C(=O)N[C@@H](CCC(=O)O)C(=O)O)cc3)nc2c(=O)[nH]1 [FA, folic acid]
Kd [3]: ~0.1 nM

Cou6 delivered into skin (skin extract) ([4]; Cou6-encapsulated, RHO-labeled micelles or free Cou6 in ethanol, mouse skin): 26.48±2.51%
Structure (SMILES): CCN(CC)c1ccc2cc(-c3nc4ccccc4s3)c(=O)oc2c1 [free Cou6, Coumarin-6]
Cou6 distribution in skin layers (CLSM) ([4]; mouse skin cross-sections after Franz cell experiment): could not diffuse efficiently into the skin layers
